EC50 and IC50 data for 33 molecules are collected here from patent US20250360145A1, “CSF-1R INHIBITORS AND USES THEREOF” (Myrobalan Therapeutics, Inc., priority 2022, published 2025).

Where two headings read alike, the source gives them in different places.

In test [1] the test system is Ba/F3_CSF-1R (stably expressing human CSF-1R kinase). The test can be described thus: Cell proliferation assay, Ba/F3_CSF-1R. Type of test: cell-based.
The next test addresses CSF-1R (Homo sapiens (Human), UniProt P07333). As to the kind of experiment: Biochemical HTRF kinase assay, CSF-1R.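 Further: enzyme incubated with inhibitor plus a substrate and ATP mix for one hour at room temperature before HTRF detection.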 Particulars: Table 2; recombinant human CSF-1R.
A further test relates to EOC2 cell. The test can be described thus: Cell proliferation assay, EOC2. Type of test: cell-based, mouse.
Setting [2] is: BaF3, 72 h, Ba/F3_CSF-1R cells, 72 hours treatment, read-out: CSF-1R BaF3 EC50.
[3] abbreviates: Mus musculus, 72 h, EOC2 cells, 72 hours treatment, read-out: ECO2 EC50.
The mark [4] stands for this setting: Ba/F3_CSF-1R cells, 72 hours treatment, read-out: CSF-1R BaF3 EC50.
Where [5] appears, read: EOC2 cells, 72 hours treatment, read-out: ECO2 EC50.

Sequence of CSF-1R (P07333 20-972): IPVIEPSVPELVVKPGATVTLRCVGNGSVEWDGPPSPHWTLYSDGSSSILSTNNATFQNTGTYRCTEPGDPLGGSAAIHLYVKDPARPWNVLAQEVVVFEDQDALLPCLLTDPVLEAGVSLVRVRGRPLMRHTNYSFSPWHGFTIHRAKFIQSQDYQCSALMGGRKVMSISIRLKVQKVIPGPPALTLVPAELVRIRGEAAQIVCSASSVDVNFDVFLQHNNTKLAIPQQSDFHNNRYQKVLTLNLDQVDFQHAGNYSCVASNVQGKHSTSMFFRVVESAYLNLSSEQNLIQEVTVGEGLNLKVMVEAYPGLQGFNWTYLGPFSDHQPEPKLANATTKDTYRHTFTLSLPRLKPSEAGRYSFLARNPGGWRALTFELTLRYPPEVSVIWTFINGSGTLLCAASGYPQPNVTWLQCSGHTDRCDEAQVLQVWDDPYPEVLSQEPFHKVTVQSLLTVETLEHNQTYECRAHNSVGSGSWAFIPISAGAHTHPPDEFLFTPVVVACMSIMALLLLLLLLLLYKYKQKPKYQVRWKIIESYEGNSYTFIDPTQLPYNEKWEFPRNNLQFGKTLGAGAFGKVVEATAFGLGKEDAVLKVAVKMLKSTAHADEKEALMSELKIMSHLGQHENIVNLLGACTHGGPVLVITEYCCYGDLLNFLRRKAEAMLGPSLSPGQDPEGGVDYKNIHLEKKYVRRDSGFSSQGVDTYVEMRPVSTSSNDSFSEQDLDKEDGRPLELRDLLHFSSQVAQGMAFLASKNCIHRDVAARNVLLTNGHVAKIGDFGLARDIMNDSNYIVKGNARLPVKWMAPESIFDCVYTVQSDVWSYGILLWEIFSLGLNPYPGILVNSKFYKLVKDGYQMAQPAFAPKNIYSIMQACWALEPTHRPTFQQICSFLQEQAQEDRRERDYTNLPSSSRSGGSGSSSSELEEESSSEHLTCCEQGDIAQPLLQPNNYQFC

For the molecule `COc1cnc2c(Cc3ccc4nc(C5CCOCC5)cnc4c3)ccnc2c1` [Example 157], the EC50 (in test [1] (setting [2]); with EOC2 cell (setting [3])) was over 1000 nM throughout. For the same molecule, the half-inhibitory concentration (IC50) on CSF-1R amounted to 543 nM.
With `COc1ccc(COc2ccc(Cc3ccnc4cc(OC)cnc34)cn2)nc1` [Example 151, 3-methoxy-8-((6-((5-methoxypyridin-2-yl)methoxy)pyridin-3-yl)methyl)-1,5-naphthyridine], the EC50 is 412 nM in test [1] (BaF3, 72 h, read-out: CSF-1R BaF3 EC50 (nM)) and 280 nM in the test with EOC2 cell (Mus musculus, 72 h, read-out: ECO2 EC50 (nM)). Besides, at CSF-1R, the half-maximal inhibitory concentration (IC50) is 22.6 nM.
As to `COc1cnc2c(Cc3cnc(OCc4cc5n(n4)CCO[C@H]5C)c(OC)c3)ccnc2c1` (stereo in doubt) [Example 114], the 50% effective concentration (EC50) in test [1] (setting [4]) is 75.7 nM; in the test on EOC2 cell (setting [5]), 37.9 nM. Besides, at CSF-1R, the 50% inhibitory concentration (IC50) is 1.7 nM.
In the case of `COc1cnc2c(Cc3cnc(OCc4cc(C)no4)c(OC)c3)ccnc2c1` [Example 46, 5-(((3-methoxy-5-((7-methoxy-1,5-naphthyridin-4-yl)methyl)pyridin-2-yl)oxy)methyl)-3-methylisoxazole], the values for the 50% effective concentration (EC50) (in test [1] (setting [2]); in the test with EOC2 cell (setting [3])) were 332 nM and 201 nM, respectively. Further, the half-inhibitory concentration (IC50) on CSF-1R was determined as 22.4 nM.
The matching figures for `COc1cnc2c(Cc3cnc(OCc4cc5n(n4)CCOC5(C)C)c(OC)c3)ccnc2c1` [Example 99]: 59.1 nM, 51.7 nM and 5.6 nM.
As for `COc1cnc2c(Cc3cnc(OCc4cc(C5CC5)n(C)n4)c(OC)c3)ccnc2c1` [Example 109], the figures for the EC50 (in test [1] (setting [2]); with EOC2 cell (setting [3])) were 102 nM and 43.7 nM, respectively. In addition, the IC50 at CSF-1R was determined as 1.1 nM.
The matching figures for `COc1cnc2c(Cc3cnc(OCc4ccc(C(F)F)nc4)c(OC)c3)ccnc2c1` [Example 60]: 97.3 nM, 84.1 nM and 5.4 nM.
As for `COc1cnc2c(Cc3cnc(OCc4cc5n(n4)CCOC5C)c(OC)c3)ccnc2c1` (stereo not drawn) [Example 98], the 50% effective concentration (EC50) in test [1] (setting [2]) is 57.3 nM; with EOC2 cell (setting [3]), 54.7 nM. The concentration for half-maximal inhibition (IC50) on CSF-1R was determined as 4.7 nM.
In the case of `COc1cnc2c(Cc3cnc(OCc4ccc(=O)n(C)c4)c(OC)c3)ccnc2c1` [Example 67], the EC50 (in test [1] (setting [2]); in the test with EOC2 cell (setting [3])) was over 1000 nM throughout. Also, on CSF-1R, the half-maximal inhibitory concentration (IC50) was determined as 9.3 nM.
With `COc1cnc2c(Cc3cnc(OCc4cnc5c(c4)CC[C@H]5OC)c(OC)c3)ccnc2c1` (stereo in doubt) [Example 105], the EC50 in test [1] (setting [4]) turned out to be 108 nM; with EOC2 cell (setting [5]), 65 nM. For the same molecule, the 50% inhibitory concentration (IC50) on CSF-1R came out at 2.4 nM.
Consider `COc1cnc2c(Cc3cnc(OCc4ccnn4C)c(OC)c3)ccnc2c1` [Example 49], for which the EC50 (in test [1] (setting [2]); in the test on EOC2 cell (setting [3])) was over 1000 nM in each case. Further, the IC50 at CSF-1R amounted to 62.1 nM.
Regarding `COc1ccc(COc2ncc(Cc3ccnc4cc(N5CCNCC5)cnc34)cc2OC)nc1` [Example 135], the results for the half-maximal effective concentration (EC50) (in test [1] (setting [2]); with EOC2 cell (setting [3])) were 25.8 nM and 66.5 nM, respectively. For the same molecule, the 50% inhibitory concentration (IC50) at CSF-1R stood at 22.4 nM.
As to `COc1cnc2c(Cc3cnc(OCc4cc5n(n4)CCO[C@H]5C)c(OC)c3)ccnc2c1` (stereo in doubt) [Example 115], the values for the EC50 (in test [1] (setting [4]); in the test on EOC2 cell (setting [5])) were 158 nM and 81.9 nM, respectively. In addition, on CSF-1R, the IC50 stood at 4 nM.
Consider `COc1cnc2c(Cc3cnc(OCc4ccn5nccc5c4)c(OC)c3)ccnc2c1` [Example 147], for which the EC50 in test [1] (setting [2]) amounted to 60.9 nM; in the test on EOC2 cell (setting [3]), 78.8 nM. At CSF-1R, the IC50 came out at 7.9 nM.
In the case of `COc1ccc(COc2ncc(Cc3ccnc4cc(N5CCC(OC)C5)cnc34)cc2OC)nc1` (stereo not drawn) [Example 126], the EC50 in test [1] (setting [2]) was found to be 3.8 nM; in the test with EOC2 cell (setting [3]), 2.4 nM. For the same molecule, on CSF-1R, the IC50 is 12.2 nM.
The matching figures for `COc1cnc2c(Cc3cnc(OCc4cnc(OC)cn4)c(OC)c3)ccnc2c1` [Example 44]: 457 nM, 171 nM and 8.6 nM.
`COc1cnc2c(Cc3cnc(OCc4ccc(OC)nc4)c(OC)c3)ccnc2c1` [Example 39]: the values for the EC50 (in test [1] (setting [2]); in the test on EOC2 cell (setting [3])) were 46.5 nM and 32.1 nM, respectively. In addition, on CSF-1R, the IC50 is 1 nM.
The matching figures for `COc1cnc2c(Cc3cnc(OCc4cc(C(C)(C)OC)n(C)n4)c(OC)c3)ccnc2c1` [Example 113]: 348 nM, 143 nM and 12.3 nM.
Take `COc1cnc2c(Cc3cnc(OCc4cnc5c(c4)CC[C@H]5OC)c(OC)c3)ccnc2c1` (stereo in doubt) [Example 104]: the figures for the 50% effective concentration (EC50) (in test [1] (setting [4]); with EOC2 cell (setting [3])) were 53.2 nM and 41 nM, respectively. The IC50 at CSF-1R is 2.4 nM.
Take `COc1ccc2c(Cc3ccc(OCc4ccc5ccnn5c4)c(OC)c3)ccnc2c1` [Example 20]: the figures for the 50% effective concentration (EC50) (in test [1] (setting [2]); in the test with EOC2 cell (setting [3])) were 134 nM and 130 nM, respectively. The IC50 on CSF-1R is 11 nM.
For the molecule `COc1cnc2c(Cc3cnc(OCc4cn5c(n4)CN(C)CC5)c(OC)c3)ccnc2c1` [Example 94], the EC50 (in test [1] (setting [2]); in the test with EOC2 cell (setting [3])) was over 1000 nM in each case. Besides, the IC50 on CSF-1R amounted to 14 nM.
`COc1ccc(COc2ccc(Cc3ccnc4ccncc34)cc2OC)cc1` [Example 17]: the EC50 was 185 nM in test [1] (setting [2]) and 180 nM with EOC2 cell (setting [3]). Further, at CSF-1R, the IC50 is 5.7 nM.
The matching figures for `COc1cnc2c(Cc3cnc(OCc4cc(C(F)(F)F)n(C)n4)c(OC)c3)ccnc2c1` [Example 97]: 34 nM, 82.7 nM and 2 nM.
The matching figures for `COc1ccc(COc2ncc(Cc3ccnc4cc(OC)ncc34)cc2OC)nc1` [Example 52]: 482 nM, 209 nM and 49.7 nM.
In the case of `COc1cnc2c(Cc3cnc(OCc4cnc5c(c4)CCC5OC)c(OC)c3)ccnc2c1` (stereo not drawn) [Example 92], the EC50 in test [1] (setting [2]) came out at 67.9 nM; with EOC2 cell (setting [3]) it was 26 nM. In addition, the IC50 on CSF-1R is 1.8 nM.
As for `COc1cnc2c(Cc3cnc(OCc4cc(F)cnc4OC)c(OC)c3)ccnc2c1` [Example 41], the concentration for a half-maximal effect (EC50) (in test [1] (setting [2]); with EOC2 cell (setting [3])) was over 1000 nM throughout. The concentration for half-maximal inhibition (IC50) on CSF-1R was found to be 39.9 nM.
For `COc1ccc(COc2ncc(Cc3ccnc4cc(OC)cnc34)cc2OC)cc1` [Example 38], the concentration giving a half-maximal response (EC50) came to 210 nM in test [1] (setting [2]) and 40.8 nM in the test with EOC2 cell (setting [3]). Also, the IC50 at CSF-1R came out at 2.1 nM.
Consider `COc1cnc2c(Cc3cnc(OCc4ccc5cnn(C)c5n4)c(OC)c3)ccnc2c1` [Example 122], for which the concentration giving a half-maximal response (EC50) in test [1] (setting [2]) came to 131 nM; with EOC2 cell (setting [3]), 108 nM. Also, the 50% inhibitory concentration (IC50) on CSF-1R is 14 nM.
The matching figures for `COc1cnc2c(Cc3cnc(OCc4cc5n(n4)C[C@@H](F)C5)c(OC)c3)ccnc2c1` [Example 128]: 21.5 nM, 4.9 nM and 4.9 nM.
The matching figures for `COc1ccc(COc2ncc(C(C)c3ccnc4cc(OC)cnc34)cc2OC)nc1` (stereo not drawn) [Example 77]: 543 nM, 360 nM and 101 nM.
As to `COc1ccc(COc2ccc(Cc3ccnc4ccc(F)cc34)cc2OC)cc1` [Example 24], the half-maximal effective concentration (EC50) in test [1] (setting [2]) was determined as 177 nM; with EOC2 cell (setting [3]), 239 nM. The IC50 at CSF-1R was determined as 25 nM.
With `COc1ccc(COc2ncc(Cc3ccnc4ccc(OC)nc34)cc2OC)nc1` [Example 53], the figures for the EC50 (in test [1] (setting [2]); with EOC2 cell (setting [3])) were 338 nM and 278 nM, respectively. In addition, the IC50 at CSF-1R was determined as 60.1 nM.
As for `COc1cnc2c(Cc3cnc(OCc4cc(C(C)C)nn4C)c(OC)c3)ccnc2c1` [Example 106], the values for the half-maximal effective concentration (EC50) (in test [1] (setting [2]); in the test on EOC2 cell (setting [3])) were 95.9 nM and 76.3 nM, respectively. For the same molecule, the IC50 on CSF-1R amounted to 2.6 nM.
